From patent publication US10363276B2, “Compositions, methods, and devices for treating disease” (The General Hospital Corporation, priority 2006, dated 2019) come the findings set out here.

The subject of series [1] is Hepatocytes. Put plainly: Hepatocyte colonies and urea synthesis with modulation of SDF-1a signaling. The series is classed as cell-based. As to conditions: 5 ng/ml SDF-1a or AMD3100 at 1 uM in standard culture medium. On the procedure:
FIG. 24 is a bar graph of Urea synthesis in hepatocytes cultured on growth-arrested NIH-3T3-J2 fibroblasts for 14 days supplemented with 5 ng/ml SDF-1a or AMD3100, a CXCR4 antagonist. Data represent mean±standard error of the mean (s.e.m.) of two independent experiments performed in triplicate.
One component of MSC-CM that may be responsible for increased hepatocyte replication is SDF-1a. Hepatocytes were proliferated using aforementioned techniques in standard culture medium alone or supplemented with 5 ng/ml SDF-1a (FIG. 29B) or the SDF-1a receptor antagonist, AMD3100 at 1 uM.

Series [2] relates to human MSCs. Kind of series: IL-10 mRNA (RT-PCR) and protein (ELISA) in cytokine-treated MSCs. In kind it is cell-based. The settings on record: IL-6 2.5 ng/ml or TNF-α 25 ng/ml, 24 hours. On the procedure:
MSCs were exposed to IL-1, IL-6, or tumor necrosis factor-α(TNF-α), all of which are cytokines known to be involved in liver fibrosis, for 24 hours. IL-10 protein secretion and mRNA levels were the determined by enzyme-linked-immunosorbent-assay (ELISA) and RT-PCR, respectively.
Briefly, human MSCs were treated with 2.5 ng/ml IL-6 (R&D Systems, Minneapolis, Minn.), 5 ng/ml IL-1 (R&D Systems, Minneapolis, Minn.), or 25 ng/ml TNF-α (R&D Systems, Minneapolis, Minn.) supplemented MSC expansion medium for 24 hours. MSCs cultured in expansion medium served as a negative control. After treatment, cells were harvested and analyzed for changes in gene expression.
Quantification of human IL-10 was determined using an ELISA as per vendor instructions (Endogen, Rockford, Ill.). Supernatants were sampled after 48 hours of co-culture and stored at −20° C. until analysis.
RNA was extracted from 0.1-1.0×10^6 MSCs using the NUCLEOSPIN RNA purification kit (BD Biosciences, Palo Alto, Calif.) per the manufacturer's instructions. Approximately 1 μg of total mRNA was reverse transcribed to cDNA using the ONESTEP RT-PCR Kit (Qiagen, Valencia, Calif.) per manufacturer's instructions and amplified in a Perkin Elmer-Cetus Thermal Cycler 480. Cycling conditions were: 1) 50° C. for 30 minutes; 2) 95° C. for 15 minutes; 3) 30 cycles at 94° C. for 30 seconds, 55° C. for 30 seconds, and 72° C. for 1 minute; and 4) a final extension step at 72° C. for 10 minutes. IL-10 was amplified using a combination of the sense and antisense oligonucleotides SEQ ID NO:1 and SEQ ID NO:2, respectively, to yield a 364 base pair (bp) PCR product. Glyceraldehyde 3-phosphate dehydrogenase (GAPDH) was amplified using a combination of the sense and antisense oligonucleotides SEQ ID NO:3 and SEQ ID NO:4, respectively, to yield a 238 bp PCR product.
A general note: In an ELISA, binding on a coated surface is turned into a signal by an enzyme label.

In the case of `c1cc(CN2CCCNCCNCCCNCC2)ccc1CN1CCCNCCNCCCNCC1` [AMD3100], the hepatocyte colony size result in series [1] was “smaller colonies”.

As for “IL-6: cytokine (R&D Systems) used at 2.5 ng/ml to treat human MSCs”, in series [2], the “IL-10 mRNA in MSCs” value is reported as “upregulation” and the “IL-10 protein secretion into the culture medium by MSCs” value is “upregulation”. Regarding TNF-α, in series [2], the “IL-10 mRNA in MSCs” value is given as “upregulation” and the “IL-10 protein secretion into the culture medium by MSCs” value is “upregulation”.
